33 compounds from patent US6969720B2, “Biaryl substituted purine derivatives as potent antiproliferative agents” (AMR Technology, Inc., priority 1999, dated 2005) can be followed below.

Data set [1] concerns HeLa S-3 cells. Put plainly: Inhibition of cell growth (SRB), HeLa cells. The data set is classed as cell-based, human. To be noted: 2 days of treatment, sulforhodamine B, replicate experiments listed singly. On the procedure: D. Measuring the Inhibition of Cell Growth
Growth inhibition (GI50) values were measured with HeLa S-3 cells selected for growth on plastic. […] One day later, a control plate was fixed by addition of TCA to 5%. After five rinses with tap water the plate was air dried and stored at 4° C. Test compounds were added to the remaining plates at 10-fold dilutions between 0.01 and 100 μM. Two days later all plates were fixed as described above. Cells were then stained by the addition of 100 μl per well of 0.4% sulforhodamine B (SRB) in 1% acetic acid for 30 min at 4° C. Wells were then quickly rinsed 5× with acetic acid (1%) and allowed to air dry. The SRB was then solubilized by the addition of 100 μl per well of unbuffered 10 mM Tris base. Dye was quantified by measuring absorbance at 490 nm on a Molecular Devices kinetic microplate reader. Growth at each inhibitor concentration relative to the untreated control was calculated according to the following equation: percent growth=100×(T−To)/(C−To), where T was the average optical density (OD) of the test wells after 2 days of treatment, To was the average OD of the wells in the control plate on day 0 and C was the average OD of untreated wells. Plots of percent growth versus inhibitor concentration were used to determine the GI50.

Data set [2] concerns Tumor Cells in Hollow Fibers. Put plainly: NCI Hollow Fiber Assay. The data set is classed as in vivo.
Data set [3] concerns implanted tumors. Put plainly: Efficacy study, implanted tumors. Particulars: IP. The data set is classed as in vivo, athymic mice. Here is the method: The efficacy study consists of three compound-treated groups (six mice/group), a positive control-treated group (six mice), and a vehicle-treated control group of 12 mice. Test compounds were administered IP under the treatment schedules listed above (qd×14 or q4d×3), whereas the positive control agent (Taxol) was administered intravenously (IV) at a dosage level of 15 mg/kg/dose for five consecutive days (qd×5). All agents were administered on the basis of individual animal body weight. Treatment began when the implanted tumors were approximately 100 mg in size (range of 65 to 200 mg). The mice were observed daily for survival. Each tumor was measured by caliper in two dimensions and converted to tumor mass using the formula for a prolate ellipsoid (a×b^2/2) and assuming unit density. Tumor measurements and animal body weights were recorded twice weekly. Antitumor activity was assessed by the delay in tumor growth of the treated groups in comparison to the vehicle-treated control group, partial and complete regressions, and tumor-free survivors.

Structures are written as SMILES. Several values for one entry are separate records, joined by “and”; a condition that tells them apart may be missing. Equal entries are not always repeated.

For orientation: GI50 means the concentration giving 50% growth inhibition. Low values mean more potent growth inhibition, high ones less potent growth inhibition. `CC(C)n1cnc2c(NCc3cccnc3)nc(N[C@@H]3CCCC[C@@H]3N)nc21` [Compound 126, reference compound]: the GI50 in data set [1] is 2000 nM and 4000 nM and 6000 nM. As for `CC(=O)N[C@H]1CC[C@H](Nc2nc(NCc3ccc(-c4ccccn4)nc3)c3ncn(C(C)C)c3n2)CC1` [Compound 94], the “Cell Types Killed” value in data set [2] is “COLO205, OVCAR-3, H522”. The GI50 in data set [1] came out at 70 nM. Consider `CC(C)n1cnc2c(NCc3ccc(-c4ccccn4)cc3)nc(N[C@H]3CC[C@H](N)CC3)nc21` [Compound 78], for which the T-C in data set [3] (0.33 mg/kg, qd × 14) was found to be 1.8 days; in data set [3] (0.5 mg/kg, qd × 14) it was 0.8 days; in data set [3] (1.0 mg/kg, q4d × 3), 1.1 days. For the same compound, the Tumor free/total in data set [3] (0.33 mg/kg, qd × 14) is on record as 0/6; in data set [3] (0.5 mg/kg, qd × 14) it was 0/6; in data set [3] (1.0 mg/kg, q4d × 3), 0/6. Compound `CCCNCCCCNc1nc(NCc2ccc(-c3ccccc3)cc2)c2ncn(C(C)C)c2n1` [Compound 215] displayed a GI50 in data set [1] of 3000 nM. Turning to `CC(=O)N[C@H]1CC[C@H](Nc2nc(NCc3ccc(-c4cccc(F)c4)cc3)c3ncn(C(C)C)c3n2)CC1` [Compound 96], the GI50 in data set [1] is 40 nM and 10 nM. In the case of `CC(C)n1cnc2c(NCc3ccc(-c4cccnc4)cc3)nc(N[C@H]3CC[C@H](N)CC3)nc21` [Compound 103], the “Cell Types Killed” value in data set [2] is given as “OVCAR 3, OVCAR 5,”. The GI50 in data set [1] was 30 nM and 8 nM and 20 nM and 10 nM.

For the compound `CC(=O)N[C@H]1CC[C@H](Nc2nc(NCc3ccc(-c4ccccc4)nc3)c3ncn(C(C)C)c3n2)CC1` [Compound 87], in data set [3] (10 mg/kg, q4d × 3), the T-C is 2.9 days and the Tumor free/total is recorded as 0/6. In data set [3] (15 mg/kg, q4d × 3), the T-C amounted to 2.5 days and the Tumor free/total is on record as 0/6. In data set [1], `CCCN(CCC)CCNc1nc(NCc2ccc(-c3ccccc3)cc2)c2ncn(C(C)C)c2n1` [Compound 210] had a GI50 of 4000 nM. On to `CC(=O)N[C@@H](C)CNc1nc(NCc2ccc(-c3ccccc3)cc2)c2ncn(C(C)C)c2n1` [Compound 108], for which the GI50 in data set [1] is 5000 nM. `CC(C)n1cnc2c(NCc3ccc(-c4ccccn4)nc3)nc(N[C@H]3CC[C@H](N)CC3)nc21` [Compound 93] had a GI50 in data set [1] of 80 nM.

`CC(=O)NCCCNc1nc(NCc2ccc(-c3ccccc3)cc2)c2ncn(C(C)C)c2n1` [Compound 212] yielded a GI50 in data set [1] of 3000 nM. The same measure, in the same setting: then `CCCN[C@H]1CC[C@H](Nc2nc(NCc3ccc(-c4cc(C)cs4)cc3)c3ncn(C(C)C)c3n2)CC1` [Compound 162], with 300 nM; and `CC(=O)N[C@H]1CC[C@H](Nc2nc(NCc3ccc(-c4cccc(CN)c4)cc3)c3ncn(C(C)C)c3n2)CC1` [Compound 223], with 40 nM and 100 nM. The same measure, in the same setting: then `CC[C@H](CO)Nc1nc(NCc2ccc(-c3ccccn3)cc2)c2ncn(C(C)C)c2n1` [Compound 17], with 600 nM and 300 nM; and `CC(=O)N[C@H]1CC[C@H](Nc2nc(NCc3ccc(-c4cccc(Cl)c4)cc3)c3ncn(C(C)C)c3n2)CC1` [Compound 110], with 30 nM and 10 nM. Same read-out and setting: then `C=Cc1ccc(-c2ccc(CNc3nc(N[C@H](CC)CO)nc4c3ncn4C(C)C)cc2)cc1` [Compound 33], with 1000 nM and 2000 nM and 900 nM. What is called melting point is the temperature, or range, at which the solid turns liquid. Regarding `Cn1cnc2c(NCc3ccc(-c4ccccc4)cc3)nc(N[C@H]3CC[C@H](N)CC3)nc21` [Compound 139], the melting point was in the range of 182 to 184 °C. In the case of `CC[C@H](CO)Nc1nc(NCc2ccc(-c3cccc(NC(C)=O)c3)cc2)c2ncn(C(C)C)c2n1` [Compound 5], in data set [1], the GI50 was greater than 10000 nM. In the case of `CC(C)n1cnc2c(NCc3ccc(-c4ccoc4)cc3)nc(N[C@H]3CC[C@H](N)CC3)nc21` [Compound 164], growth in data set [1] was halved (GI50) at 100 nM. Take `CC(=O)N[C@H]1CCCC[C@@H]1Nc1nc(NCc2ccc(-c3ccccc3)cc2)c2ncn(C(C)C)c2n1` [Compound 60]: the 50% growth inhibitory concentration (GI50) in data set [1] was determined as 6000 nM. With `CC(C)n1cnc2c(NCc3ccc(-c4ccsc4)cc3)nc(N[C@H]3CC[C@H](N)CC3)nc21` [Compound 12], the T-C in data set [3] (0.27 mg/kg, q4d × 3) was 1.2 days; in data set [3] (0.4 mg/kg, q4d × 3) it was 0.2 days; in data set [3] (0.6 mg/kg, q4d × 3), 0.3 days. As for `CC(=O)N[C@H]1CC[C@H](Nc2nc(NCc3ccc(-c4ccoc4)cc3)c3ncn(C(C)C)c3n2)CC1` [Compound 165], the melting point lay in the range of 241 to 243 °C. Turning to `CC[C@H](CO)Nc1nc(NCc2ccc(-c3cccnc3)cc2)c2ncn(C(C)C)c2n1` [Compound 25], in data set [1], the GI50 was 2000 nM and 400 nM and > 1000 nM. `CC(=O)N[C@H]1CC[C@H](Nc2nc(NCc3ccc(-c4ccc(C)s4)cc3)c3ncn(C(C)C)c3n2)CC1` [Compound 158] came in with a melting point of 225 to 230 °C. In addition, the GI50 in data set [1] amounted to 400 nM.

For `CC(=O)N[C@H]1CC[C@H](Nc2nc(NCc3ccc(-c4cc(C)cc(C)c4)cc3)c3ncn(C(C)C)c3n2)CC1` [Compound 150], the concentration for 50% growth inhibition (GI50) in data set [1] worked out at 200 nM. `CC(C)n1cnc2c(NCc3ccc(-c4ccc(F)c(Cl)c4)cc3)nc(N[C@H]3CC[C@H](N)CC3)nc21` [Compound 14]: growth in data set [1] was halved (GI50) at 400 nM. Consider `CC(C)n1cnc2c(NCc3ccc(-c4cccs4)cc3)nc(N[C@H]3CC[C@H](N)CC3)nc21` [Compound 111], for which the melting point lay in the range of 109 to 110 °C. In turn, `Cc1csc(-c2ccc(CNc3nc(N[C@H]4CC[C@H](N)CC4)nc4c3ncn4C(C)C)cc2)c1` [Compound 160] came in with a GI50 in data set [1] of 300 nM. With `CC(C)n1cnc2c(NCc3ccc(-c4ccccc4)cc3)nc(N[C@H]3CCCC[C@H]3NC(=O)Nc3ccccc3)nc21` [Compound 80], the GI50 in data set [1] was greater than 100000 nM. On the same count and under the same terms, the figure for `CC[C@H](CO)Nc1nc(NCc2ccc(-c3ccc(OC)cc3)cc2)c2ncn(C(C)C)c2n1` [Compound 43] is 8000 nM; for `CC[C@H](CO)Nc1nc(NCc2ccc(-c3ccc(C(O)CO)cc3)cc2)c2ncn(C(C)C)c2n1` (some centres unmarked) [Compound 34] it is 6000 nM. Take `CC(=O)N[C@H]1CC[C@H](Nc2nc(NCc3ccc(-c4cc(C)cs4)cc3)c3ncn(C(C)C)c3n2)CC1` [Compound 161]: the melting point lay within 222 to 223 °C. In data set [1], this compound yielded a GI50 of 400 nM.

In data set [1], `CC(C)n1cnc2c(NCc3ccc(-c4ccccc4)nc3)nc(N[C@H]3CC[C@H](N)CC3)nc21` [Compound 86] registered a concentration for 50% growth inhibition (GI50) of 30 nM.
